In patent publication US7459581B2, “Anti-bacterial compounds” (Givaudan S.A., priority 2004, dated 2008):
Values after ≈ are worked out from the molar mass of the structure shown. Read-outs that look alike come from different tables or passages of the source.

Columns and labels:
[1] = test system: Corynebacterium Ax 7; assay: Bactericidal activity (MBC), 60 min contact; format: cell-based, Corynebacterium group G; settings: complete kill of inoculum after 60 min incubation; regrowth read after 24 h at 36° C.
Source text: (§1) The different axilla bacteria are isolated from the human axilla according to techniques known in the art, in particular according to standard microbiological practice. They are taxonomically identified by cell morphology, gram-reaction and biochemical tests included in the Api coryne test kit (BioMerieux, France). Strain Staphylococcus epidermidis Ax25 is identified by fatty acid methyl ester analysis (FAME; German type strain collection DSMZ, Germany). Escherichia coli DSM 682, Staphylococcus aureus DSM 799, and Corynebacterium xerosis DSM 20170 are obtained from the German-type strain collection.
(§2) The strains are maintained on Tryptic soy broth plates, this standard medium being supplemented with 5 g per litre of Polyoxyethylene Sorbitan Monooleate (Tween™ 80). Plates are incubated at 36° C. for a period 48 hours. The bacteria are then swabbed from the plates and suspended in 4 ml of Müller-Hinton broth supplemented with 100 mg of Tween™ 80 per litre (MH-Tween™) and incubated again at 36° C. for 16 hours. Following incubation, the bacterial suspensions are diluted in MH-Tween™ to obtain a final cell density of 10^7 colony forming units per ml. These diluted suspensions of the different test organisms are distributed to different columns of a microtiter plate, 100 μl per well. The test compounds are dissolved in dimethylsulfoxide (DMSO) at various test concentrations and 2.5 μl of these different DMSO solutions are added to the different wells of the test plates. The plates are covered with plastic films and incubated for 24 h at 36° C. with shaking at 250 rpm. The turbidity developing in the microtiter plates is then examined after 24 h to determine microbial growth. The minimal concentration of test compounds inhibiting the growth of an organism by at least 80% is determined as the minimal inhibitory concentration (MIC).
(§3) The bactericidal effects of the compounds of the present invention are further tested. The bacteria are grown, harvested and diluted under the same conditions as described in example 10 above and added to microtiter plates (100 μl per well), each well containing 2.5 μl of the different DMSO solutions as described above. After 60 min incubation, 0.5 μl of the bacterial culture from each well (corresponding to 5×10^3 cfu in the control treatment) is transferred to a fresh microtiter plate which contained 100 μl per well of fresh medium. The plates are covered with plastic films and incubated for 24 h at 36° C. with shaking at 250 rpm. The turbidity developing in the microtiter plates is then examined after 24 h to determine microbial growth. The minimal concentration of test compounds which completely killed the bacterial inoculum is determined as the minimal bactericidal concentration (MBC).

[2] = test system: C. xerosis DSM 20170; assay: Bactericidal activity (MBC), 60 min contact; format: cell-based, Corynebacterium xerosis; settings: complete kill of inoculum after 60 min incubation; regrowth read after 24 h at 36° C.
Source text: as §1, §2, §3

[3] = test system: Corynebacterium Ax 15; assay: Bacteriostatic activity (MIC), microtiter turbidity; format: cell-based, Corynebacterium jeikeium; settings: read-out: MIC Corynebacterium Ax 15
Source text: (§4) The different axilla bacteria are isolated from the human axilla according to techniques known in the art, in particular according to standard microbiological practice. They are taxonomically identified by cell morphology, gram-reaction and biochemical tests included in the Api coryne test kit (BioMerieux, France). Strain Staphylococcus epidermidis Ax25 is identified by fatty acid methyl ester analysis (FAME; German type strain collection DSMZ, Germany).
as §2, with “growth.” for “growth. The minimal concentration of test compounds inhibiting the growth of an organism by at least 80% is determined as the minimal inhibitory concentration (MIC).”

[4] = test system: Corynebacterium Ax 7; assay: as above; format: cell-based, Corynebacterium group G; settings: read-out: MIC Corynebacterium Ax 7
Source text: as §4
as §2, with “growth.” for “growth. The minimal concentration of test compounds inhibiting the growth of an organism by at least 80% is determined as the minimal inhibitory concentration (MIC).”

[5] = test system: Aspergillus niger; assay: Antifungal (fungistatic) activity, MIC; format: cell-based; settings: growth inhibition by at least 80%, 48 h, Saboureaud liquid medium, 10^5 cfu per ml
Description: as §2
(§5) The fungistatic effects of the compounds of the present invention are tested against the standard strains Candida albicans and Aspergillus niger. The strains are maintained on Potato dextrose agar plates. Plates are incubated at 30° C. for a period of 72 hours. The fungal inoculum is then swabbed from the plates and suspended in Saboureaud liquid medium and incubated again at 30° C. for 24 hours in the case of C. albicans. For A. niger the inoculum containing the fungal spores is directly harvested from the agar plates and suspended in distilled water. The inoculum is then diluted in Saboureaud liquid medium to obtain a final cell density of 10^5 colony forming units per ml. The test for fungistatic activity using differently concentrated DMSO stock solutions in microtiter plates is then conducted as described in example 10 for the bacteriostatic activity. The turbidity developing in the microtiter plates is then examined after 48 h to determine fungal growth. The minimal concentration of test compounds inhibiting the growth of an organism by at least 80% is determined as the minimal inhibitory concentration (MIC).

[6] = test system: Candida albicans; assay: Antifungal (fungistatic) activity, MIC; format: cell-based; settings: growth inhibition by at least 80%, 48 h, Saboureaud liquid medium, 10^5 cfu per ml
Description: as §2, §5

[7] = test system: S. epidermidis Ax 25; assay: Bacteriostatic activity (MIC), microtiter turbidity; format: cell-based; settings: Staphylococcus epidermidis, read-out: MIC S. epidermidis Ax 25
Source text: as §4
as §2, with “growth.” for “growth. The minimal concentration of test compounds inhibiting the growth of an organism by at least 80% is determined as the minimal inhibitory concentration (MIC).”

[8] = test system: Staphylococcus aureus DSM 799; assay: as above; format: cell-based; settings: read-out: MIC Staphylococcus aureus DSM 799
Source text: as §4
as §2, with “growth.” for “growth. The minimal concentration of test compounds inhibiting the growth of an organism by at least 80% is determined as the minimal inhibitory concentration (MIC).”

[9] = test system: Escherichia coli DSM 682; assay: as above; format: cell-based; settings: read-out: MIC Escherichia coli DSM 682
Source text: as §4
as §2, with “growth.” for “growth. The minimal concentration of test compounds inhibiting the growth of an organism by at least 80% is determined as the minimal inhibitory concentration (MIC).”

[10] = test system: C. xerosis DSM 20170; assay: as above; format: cell-based; settings: Corynebacterium xerosis, read-out: MIC C. xerosis DSM 20170
Source text: as §4
as §2, with “growth.” for “growth. The minimal concentration of test compounds inhibiting the growth of an organism by at least 80% is determined as the minimal inhibitory concentration (MIC).”

[11] = test system: S. epidermidis Ax 25; assay: Bactericidal activity (MBC), 60 min contact; format: cell-based, Staphylococcus epidermidis; settings: complete kill of inoculum after 60 min incubation; regrowth read after 24 h at 36° C.
Source text: as §1, §2, §3

[12] = test system: Corynebacterium Ax 15; assay: Bactericidal activity (MBC), 60 min contact; format: cell-based, Corynebacterium jeikeium; settings: complete kill of inoculum after 60 min incubation; regrowth read after 24 h at 36° C.
Source text: as §1, §2, §3

[13] = test system: Staphylococcus aureus DSM 799; assay: Bactericidal activity (MBC), 60 min contact; format: cell-based; settings: complete kill of inoculum after 60 min incubation; regrowth read after 24 h at 36° C.
Source text: as §1, §2, §3

[14] = test system: Escherichia coli DSM 682; assay: Bactericidal activity (MBC), 60 min contact; format: cell-based; settings: complete kill of inoculum after 60 min incubation; regrowth read after 24 h at 36° C.
Source text: as §1, §2, §3

[15] = AX15, growth inhibition by at least 80%, 24 h at 36° C., MH-Tween, 10^7 cfu per ml
[16] = AX7, growth inhibition by at least 80%, 24 h at 36° C., MH-Tween, 10^7 cfu per ml
[17] = AX25, growth inhibition by at least 80%, 24 h at 36° C., MH-Tween, 10^7 cfu per ml
[18] = DSM799, growth inhibition by at least 80%, 24 h at 36° C., MH-Tween, 10^7 cfu per ml
[19] = DSM682, growth inhibition by at least 80%, 24 h at 36° C., MH-Tween, 10^7 cfu per ml
[20] = DSM20170, growth inhibition by at least 80%, 24 h at 36° C., MH-Tween, 10^7 cfu per ml

Structure (SMILES) | MBC Corynebacterium Ax 7 [1] | MBC C. xerosis DSM 20170 [2] | MIC [3, 15] [µg/mL] | MIC [4, 16] [µg/mL] | MIC A. niger [5] | MIC C. albicans [6] | MIC [7, 17] [µg/mL] | MIC [8, 18] [µg/mL] | MIC [9, 19] [µg/mL] | MIC [10, 20] [µg/mL] | MBC S. epidermidis Ax 25 [11] | MBC Corynebacterium Ax 15 [12] | MBC Staphylococcus aureus DSM 799 [13] | MBC Escherichia coli DSM 682 [14] | MIC ([3]; AX15, 24 h) [µg/mL] | MIC ([4]; AX7, 24 h) [µg/mL] | MIC ([7]; AX25, 24 h) [µg/mL] | MIC ([8]; DSM799, 24 h) [µg/mL] | MIC ([9]; DSM682, 24 h) [µg/mL] | MIC ([10]; DSM20170, 24 h) [µg/mL]
CCCCC(CC)COC(=O)CO (stereo not drawn) [Compound 1., Hydroxy-acetic acid 2-ethyl-hexyl ester] | 0.125 % (weight/volume) | 0.125 % (weight/volume) | 1250 (≈ 6640 µM) | 1250 (≈ 6640 µM) | 0.125 % (weight/volume) | 0.0625 % (weight/volume) | 1250 (≈ 6640 µM) | 2500 (≈ 13300 µM) | 1250 (≈ 6640 µM) | 1250 (≈ 6640 µM) | 0.25 % (weight/volume) | 0.125 % (weight/volume) |  |  |  |  |  |  |  | 
CCCCCCC(CCCC)COC(=O)CO (stereo not drawn) [Compound 2., Hydroxy-acetic acid 2-butyl-octyl ester] | >0.25 % (weight/volume) | >0.25 % (weight/volume) | 40 (≈ 164 µM) | 80 (≈ 327 µM) |  |  | 80 (≈ 327 µM) | 310 (≈ 1270 µM) | > 2500 | 80 (≈ 327 µM) | >0.25 % (weight/volume) | >0.25 % (weight/volume) |  |  |  |  |  |  |  | 
CCCCCCCCC(CCCCCC)COC(=O)CO (stereo not drawn) [Compound 3., Hydroxy-acetic 2-hexyl-decyl ester] | >0.25 % (weight/volume) | >0.25 % (weight/volume) | 39 (≈ 130 µM) | 2500 (≈ 8320 µM) |  |  | ≤ 19 | > 2500 | > 2500 | > 2500 | >0.25 % (weight/volume) | >0.25 % (weight/volume) | >0.25 % (weight/volume) | >0.25 % (weight/volume) |  |  |  |  |  | 
CCCCC(CC)COC(=O)CN (stereo not drawn) [Compound 4., 2-Ethyl-hexyloxycarbonylmethyl-ammonium chloride] | 0.25 % (weight/volume) | >0.25 % (weight/volume) |  |  |  |  |  |  |  |  | 0.25 % (weight/volume) | 0.25 % (weight/volume) | 0.25 % (weight/volume) | 0.125 % (weight/volume) | 310 | 310 | 630 | 630 | 630 | 310
CCCCCCC(CCCC)COC(=O)CN (stereo not drawn) [Compound 5., 2-Butyl-octyloxycarbonylmethyl-ammonium chloride] | 0.002 % (weight/volume) | 0.004 % (weight/volume) |  |  | 0.0039 % (weight/volume) | 0.0078 % (weight/volume) |  |  |  |  | 0.004 % (weight/volume) | 0.002 % (weight/volume) | 0.004 % (weight/volume) | 0.004 % (weight/volume) | 10 | 10 | 20 | 80 | 20 | 20
CCCCCCCCCCCC(=O)OCC(O)CO (stereo not drawn) [Compound C1, Dodecanoic acid 2,3-dihydroxy-propyl ester, reference compound] |  |  |  |  |  |  |  |  |  |  |  |  |  |  | 1250 (≈ 4560 µM) | 160 (≈ 583 µM) | < 80 | 80 (≈ 292 µM) | > 5000 | 320 (≈ 1170 µM)
Oc1cc(Cl)ccc1Oc1ccc(Cl)cc1Cl [Compound C4, Triclosan, reference compound] |  |  |  |  |  |  |  |  |  |  |  |  |  |  | 30 (≈ 104 µM) | 30 (≈ 104 µM) | 0.15 (≈ 0.518 µM) | 5 (≈ 17.3 µM) | 5 (≈ 17.3 µM) | 15 (≈ 51.8 µM)
